From PMC7449161, “Nonstationary Pharmacokinetics of Caspofungin in ICU Patients” (Antimicrobial Agents and Chemotherapy, 2020)
Read-outs that look alike come from different tables or passages of the source.

Experiments:
[1] = cited from earlier work; for clearance: ICU patients
Description: Although the CL after the first dose (0.563 liters/h, 6.7%RSE) is well within the values reported in literature, the CL after the second dose (0.737 liters/h, 6.1%RSE) is within the highest previously reported values, and the CL after the third dose (1.01 liters/h, 9.1%RSE) almost doubles compared to CL after the first dose and literature CL values.

[2] = cited from earlier work
Description: There are little data concerning the influence of extracorporeal membrane oxygenation (ECMO) on caspofungin pharmacokinetics ([9], [10]). ECMO is known to alter drug pharmacokinetics due to drug extraction during the procedure and a large volume of exogenous blood needed for ECMO circuit. The changes include increased volume of distribution and decreased clearance ([11]). The interactions between the ECMO circuit and the drug are not always easily predictable, but one of the vital drug characteristics determining circuit drug loss is the lipophilicity and protein binding ([12], [13]). Since ca ... || The changes in parameters with time require further investigation as they might be caused by a process that our study was not able to capture and describe. It could be the result of temporal changes in protein binding as caspofungin is highly protein-bound (97%) ([6]). Another possibility is nonlinearity in metabolic or distribution processes.

[3] = Population pharmacokinetics of caspofungin in ICU patients (two-compartment nonlinear mixed-effects model); assay type: in vivo, human; details: for clearance: human, serum, iv; for typical AUC0–24: maintenance dose of 50 mg
Description: This study was registered at ClinicalTrials.gov under ID NCT03399032. It was a prospective observational study conducted in adult critically ill patients admitted to ICU due to severe sepsis requiring broad-spectrum antibiotics with a high risk of fungal infection. Both medical and surgical patients with any type of infection (pulmonary, abdominal, urinary tract, etc.) were included. Eligible consent was obtained from each patient or his or her attendant. Allergy to caspofungin, lack of consent to participate in the study, and age below 18 or above 80 years were the exclusion criteria. Thirty-three patients were enrolled in the study. Data from three patients were excluded from analysis due to technical issue with handling the samples, which made them unsuitable for analysis and the concentrations could not be determined.
The antibiotic regimen included broad-spectrum antibacterial antibiotics plus caspofungin as empirical antifungal therapy (70 mg i.v. on the first day, and 50 mg i.v. on the consecutive days) once daily. In three patients with liver failure caspofungin doses were reduced (50 mg i.v. initial and 35 mg i.v. maintenance dose). Any site of infection was treated in the manner.
Blood samples (3 ml) were collected 0.5, 2, 4, 8, 12, and 24 h after each dose of caspofungin for three consecutive days from the standard arterial cannula. Thirty minutes after each sample collection, blood was centrifuged for 10 min at 3,000 rpm. Subsequently, the supernatant was collected and frozen. Serum caspofungin concentrations were measured with high-performance liquid chromatography (HPLC).
Plasma samples were prepared for analysis according to a previously described procedure ([3]). A Dionex chromatographic system (Dionex, Sunnyvale, CA), equipped with a P580 LPG LC-6A gradient pump, UVD340S UV-visible detector, and a Rheodyne 7725 loop injector with a sufficient volume of 20 μl was employed in this study. Chromatographic separation was achieved on a Zorbax SB C18 column (150 × 4.6 mm × 5 μm) in isocratic mode. The mobile phase consisted of 20 mM triethylammonium phosphate buffer (pH 3.0): acetonitrile-methanol (50:40:10 [vol/vol/vol]; Fluka, HPLC grade). The mobile phase flow rate was 1.0 ml/min, and caspofungin absorbance was measured at 210 nm. The analytical method was validated in terms of linearity, the limits of detection (LOD) and quantification (LOQ), precision, and accuracy. The standard curves were linear over a concentration range from 0.25 to 10.0 μg/ml with an R^2 of 0.987. The LOD and LOQ values for caspofungin were 0.08 and 0.18 μg/ml, respectively. The intra- and interday accuracies ranged from 98.1 to 102.8%, and the coefficients of variation (CVs) were between 0.8 and 3.4%.
Population nonlinear mixed-effects modeling was conducted using NONMEM software (v7.3; Icon Development Solutions, Ellicott City, MD), GNU Fortran 95 compiler (GCC 4.6.0), and Wings for NONMEM (WFN741, http://wfn.sourceforge.net). The first-order conditional estimation method with η-ε interaction was employed throughout the model-building procedure. R computing environment (R Core Team 2019) was used for data processing and visualization.
The minimum value of the NONMEM objective function (OFV), typical goodness-of-fit diagnostic plots, and the evaluation of the precision of pharmacokinetic parameters and variability estimates were used to discriminate between various models during the model-building process. For hierarchical models, the decrease in OFV of 6.62 units defining an improved fit at a P of <0.01 for one additional parameter was considered to be statistically significant. The uncertainty of final model parameters was determined by nonparametric bootstrap with 1,000 replicates. The 90% confidence intervals (90% CI) for model parameters were constructed based on bootstrap results.
During the structural model-building step, candidate one-, two-, and three-compartment models were tested to describe the pharmacokinetics of caspofungin. […]

[4] = test system: C. glabrata; details: preclinical pharmacodynamic target; cited from earlier work
[5] = test system: C. albicans; details: preclinical pharmacodynamic target; cited from earlier work
Method: The simulations of PTA were based on model parameters from bootstrap samples (n = 1,000) in order to include the parameter uncertainty. Predictions of AUC at steady state were performed for the standard 50-mg maintenance dose.

[6] = cited from earlier work; for CL: healthy subjects
[7] = test system: C. parapsilosis; details: preclinical pharmacodynamic target; cited from earlier work
[8] = patients with liver failure, maintenance dose of 35 mg, from individual parameters

CC[C@H](C)C[C@H](C)CCCCCCCCC(=O)N[C@H]1C[C@@H](O)[C@@H](NCCN)NC(=O)[C@@H]2[C@@H](O)CCN2C(=O)[C@H]([C@H](O)CCN)NC(=O)[C@H]([C@H](O)[C@@H](O)c2ccc(O)cc2)NC(=O)[C@@H]2C[C@@H](O)CN2C(=O)[C@H]([C@@H](C)O)NC1=O [caspofungin]
mean clearance ([1]; ICU patients (Child-Pugh B score)): 0.55 L/h
clearance ([1]; day 3 of the study): 0.57 L/h
clearance ([1]; day 7 of the study): 0.54 L/h
clearance [1]: 0.66 L/h
CL, value provided in the drug label [1]: 0.72 L/h
mean clearance ([1]; patients undergoing CRRT): 0.62 L/h
mean clearance ([1]; patients with invasive aspergillosis, value for a 76-kg patient): 0.403 L/h
protein bound [2]: 97%
decrease in exposure between doses ([3]; CL2 versus CL1): 24%
decrease in exposure between doses ([3]; CL3 versus CL1): 44%
decrease in caspofungin exposure ([3]; associated with increasing clearance with subsequent doses, ICU patients): > 20%
clearance ([3]; estimated during model building process, ICU patients, read-out: mean CL for all three occasions (converted)): 11.8 mL/min
clearance ([3]; typical clearance after first dose, 30 ICU patients, 70 mg i.v. day 1, 50 mg i.v. once daily after, HPLC-UV, final model, read-out: θCL day 1, Estimate (%RSE) (converted)): 9.38 mL/min
clearance ([3]; typical clearance after second dose, 30 ICU patients, i.v., final model, read-out: θCL day 2, Estimate (%RSE) (converted)): 12.3 mL/min
clearance ([3]; typical clearance after third dose, 30 ICU patients, i.v., final model, read-out: θCL day 3, Estimate (%RSE) (converted)): 16.8 mL/min
θQ, Estimate (%RSE) ([3]; intercompartmental clearance, 30 ICU patients, final model): 1.31 (15.7) liter/h
typical AUC0–24 ([3]; typical clearance after first dose (CL1)): 89 mg ⋅ h/liter
typical AUC0–24 ([3]; typical clearance after second dose (CL2)): 68 mg ⋅ h/liter
typical AUC0–24 ([3]; typical clearance after third dose (CL3)): 50 mg ⋅ h/liter
minimal AUC0–24 as % of the 98 mg ⋅ h/liter target ([3]; patients with liver failure, 35 mg maintenance): 23%
maximum AUC0–24 as % of the value required for efficacy ([3]; patients with liver failure, 35 mg maintenance, 98 mg ⋅ h/liter target): 62%
AUC0–24, maximum value [3, 8]: 61 mg ⋅ h/liter
AUC0–24, minimal value [3, 8]: 23 mg ⋅ h/liter
θV1 day 1, Estimate (%RSE) ([3]; volume of distribution of central compartment after first dose, 30 ICU patients, final model): 6.04 (7.0) liter
θV1 day 2, Estimate (%RSE) ([3]; volume of distribution of central compartment after second dose, 30 ICU patients, final model): 7.32 (5.3) liter
θV1 day 3, Estimate (%RSE) ([3]; volume of distribution of central compartment after third dose, 30 ICU patients, final model): 7.70 (5.3) liter
θV2, Estimate (%RSE) ([3]; volume of distribution of peripheral compartment, 30 ICU patients, final model): 5.13 (13.7) liter
target AUC/MIC [4]: 450
target AUC/MIC [5]: 865
CL ([6]; sampling for 26 weeks): 0.579 L/h
CL ([6]; sampling for 28 days): 0.631 L/h
quantifiable concentrations as long as, after administration ([6]; radioactive labeled caspofungin): 22.3 weeks
target AUC/MIC [7]: 1,185
